From patent US20230023092A1, “TREATMENT OF DEPRESSION AND OTHER VARIOUS DISORDERS WITH PSILOCYBIN” (COMPASS […], priority 2019, published 2023)

System: healthy subjects
Assay: Life Changes Inventory (LCI)
Assay type: in vivo, human
Description: In some embodiments, the Life Changes Inventory (LCI) questionnaire is utilized to evaluate the safety and/or efficacy of psilocybin. The LCI is designed as a questionnaire to investigate those variables present in the day-to-day experience of adults that might relate either to stability or decline of intellectual ability.
The following list of outcome measures are non-exhaustive. • a. The short-term change from Baseline (Day −1 [Visit 2]) to Day 7 (Visit 5) in cognitive measures of attention, spatial and working memory and executive function was measured by a composite score of the CANTAB Panel (Spatial Working Memory [SWM], Rapid Visual Information Processing [RVP], Paired Associates Learning [PAL]). • b. The short-term change from Baseline (Day −1 [Visit 2]) to Day 7 (Visit 5) in Social Cognition Panel scales (Pictorial Empathy Test [PET], Reading the Mind in the Eyes Test [RMET], Toronto Empathy Questionnaire [TEQ], Social Value Orientation [SVO], Scale of Social Responsibility [SSR]). • c. The change from Baseline (Day −1 [Visit 2]) to Day 28 (Visit 6) in cognitive measures of attention, spatial and working memory and executive function as measured by a composite score of the CANTAB Panel (SWM, RVP, PAL). • d. The long-term change from Baseline (Day −1 [Visit 2]) to Day 84 (Visit 7) in Social Cognition Panel scales (PET, RMET, TEQ, SVO, SSR). • e. Dose-related differences between cognitive effects of psilocybin at Baseline (Day −1 [Visit 2]), Day 7 (Visit 5) and Day 28 (Visit 6), as measured by a composite score of the CANTAB Panel (SWM, RVP, PAL). • f. Dose-related differences between psychological effects of psilocybin at Baseline (Day −1 [Visit 2]), Day 7 (Visit 5) and Day 84 (Visit 7), as measured by Social Cognition Panel scales (PET, RMET, TEQ, SVO, SSR). • g. Differences in cognitive effects of psilocybin between psilocybin-naïve and experienced subjects at Baseline (Day −1 [Visit 2]), Day 7 (Visit 5) and Day 28 (Visit 6), as measured by a composite score of the CANTAB Panel (SWM, RVP, PAL). • h. Differences in Positive and Negative Affect Schedule (PANAS) after study drug administration on Day 0 (Visit 3). • i. Differences between psilocybin and placebo in the Emotion Recognition Test (ERT), Intra-Extra Dimensional Set Shift (IED), One Touch Stockings (OTS), Verbal Fluency and Digit Span Forward at Day 7 (Visit 5). • j. A composite score of the CANTAB Panel, including the following tests: • i. Spatial Working Memory (SWM) (performed at Visit 2, Visit 5, and Visit 6). • ii. Rapid Visual Information Processing (RVP) (performed at Visit 2, Visit 5, and Visit 6). • iii. Paired Associates Learning (PAL) (performed at Visit 2, Visit 5, and Visit 6). • k. Cognitive Flexibility Panel • i. Emotion Recognition Task (ERT) (performed at Visit 5). • ii. Intra-Extra Dimensional Set Shift (IED) (performed at Visit 5). • iii. One Touch Stockings (OTS) (performed at Visit 5). • iv. Verbal Fluency (performed at Visit 5). • v. Digit Span Forward (performed at Visit 5). • l. Five Dimension Altered States of Consciousness questionnaire (5D-ASC) (performed at Visit 3). • m. PANAS (performed at Visit 2 and Visit 3). • n. NEO-Five Factor Inventory (NEO-FFI) (performed at Visit 2, Visit 5, and Visit 7). • o. Symptom Checklist-90 item (SCL-90) (performed at Visit 2, Visit 5, and Visit 7). • p. Life Changes Inventory (LCI): The LCI measures changes in attitudes and values after near-death experiences often used to evaluate personal transformation following spiritually oriented experiences and practices. (performed at Visit 5 and Visit 7). • q. Social Cognition Panel scales • i. Pictorial Empathy Test (PET) (performed at Visit 2, Visit 5, and Visit 7). • ii. Reading the Mind in the Eyes Test (RMET) (performed at Visit 2, Visit 5, and Visit 7). • iii. Social Value Orientation (SVO) (performed at Visit 2, Visit 5, and Visit 7). • iv. Toronto Empathy Questionnaire (TEQ) (performed at Visit 2, Visit 5, and Visit 7). • v. […]

With `CN(C)CCc1c[nH]c2cccc(OP(=O)(O)O)c12` [Psilocybin, psilocybin] the “LCI appreciation for life, LS mean difference Psilocybin 10 mg-Placebo” value (Day 7) was 0.6, the “LCI appreciation for life, LS mean difference Psilocybin 25 mg-Placebo” value (Day 7) was 0.5 and the “LCI appreciation for life, LS mean difference Psilocybin (25 mg-10 mg)” value (Day 7) was −0.2. For the same molecule, the “LCI appreciation of death, LS mean difference Psilocybin 10 mg-Placebo” value (Day 7) was 0.1, the “LCI appreciation of death, LS mean difference Psilocybin 25 mg-Placebo” value (Day 7) was 0.1 and the “LCI appreciation of death, LS mean difference Psilocybin (25 mg-10 mg)” value (Day 7) was −0.0. The “LCI concern for others, LS mean difference Psilocybin 10 mg-Placebo” value (Day 7) was 0.4, the “LCI concern for others, LS mean difference Psilocybin 25 mg-Placebo” value (Day 7) was 0.4 and the “LCI concern for others, LS mean difference Psilocybin (25 mg-10 mg)” value (Day 7) was 0.0. For the same molecule, the “LCI concern for worldly achievement, LS mean difference Psilocybin 10 mg-Placebo” value (Day 7) was −0.2, the “LCI concern for worldly achievement, LS mean difference Psilocybin 25 mg-Placebo” value (Day 7) was −0.1 and the “LCI concern for worldly achievement, LS mean difference Psilocybin (25 mg-10 mg)” value (Day 7) was 0.1. The “LCI concern social, LS mean difference Psilocybin 10 mg-Placebo” value (Day 7) was 0.1, the “LCI concern social, LS mean difference Psilocybin 25 mg-Placebo” value (Day 7) was 0.2 and the “LCI concern social, LS mean difference Psilocybin (25 mg-10 mg)” value (Day 7) was 0.1. For the same molecule, the “LCI quest for meaning, LS mean difference Psilocybin 10 mg-Placebo” value (Day 7) was 0.4, the “LCI quest for meaning, LS mean difference Psilocybin 25 mg-Placebo” value (Day 7) was 0.4 and the “LCI quest for meaning, LS mean difference Psilocybin (25 mg-10 mg)” value (Day 7) was 0.0. For the same molecule, the “LCI religiousness, LS mean difference Psilocybin 10 mg-Placebo” value (Day 7) was −0.1, the “LCI religiousness, LS mean difference Psilocybin 25 mg-Placebo” value (Day 7) was 0.0 and the “LCI religiousness, LS mean difference Psilocybin (25 mg-10 mg)” value (Day 7) was 0.1. For the same molecule, the “LCI self-acceptance, LS mean difference Psilocybin 10 mg-Placebo” value (Day 7) was 0.7, the “LCI self-acceptance, LS mean difference Psilocybin 25 mg-Placebo” value (Day 7) was 0.5 and the “LCI self-acceptance, LS mean difference Psilocybin (25 mg-10 mg)” value (Day 7) was −0.1. The “LCI spirituality, LS mean difference Psilocybin 10 mg-Placebo” value (Day 7) was 0.3, the “LCI spirituality, LS mean difference Psilocybin 25 mg-Placebo” value (Day 7) was 0.2 and the “LCI spirituality, LS mean difference Psilocybin (25 mg-10 mg)” value (Day 7) was −0.1. For the same molecule, the “LCI-absolute change, LS mean difference Psilocybin 10 mg-Placebo” value (Day 7) was 0.4, the “LCI-absolute change, LS mean difference Psilocybin 25 mg-Placebo” value (Day 7) was 0.3 and the “LCI-absolute change, LS mean difference Psilocybin (25 mg-10 mg)” value (Day 7) was −0.1. For the same molecule, the “LCI appreciation for life, LS mean difference Psilocybin 10 mg-Placebo” value (Day 84) was 0.6, the “LCI appreciation for life, LS mean difference Psilocybin 25 mg-Placebo” value (Day 84) was 0.5 and the “LCI appreciation for life, LS mean difference Psilocybin (25 mg-10 mg)” value (Day 84) was −0.1. For the same molecule, the “LCI appreciation of death, LS mean difference Psilocybin 10 mg-Placebo” value (Day 84) was 0.2, the “LCI appreciation of death, LS mean difference Psilocybin 25 mg-Placebo” value (Day 84) was 0.2 and the “LCI appreciation of death, LS mean difference Psilocybin (25 mg-10 mg)” value (Day 84) was 0.0. For the same molecule, the “LCI concern for others, LS mean difference Psilocybin 10 mg-Placebo” value (Day 84) was 0.4, the “LCI concern for others, LS mean difference Psilocybin 25 mg-Placebo” value (Day 84) was 0.5 and the “LCI concern for others, LS mean difference Psilocybin (25 mg-10 mg)” value (Day 84) was 0.1. For the same molecule, the “LCI concern for worldly achievement, LS mean difference Psilocybin 10 mg-Placebo” value (Day 84) was −0.2, the “LCI concern for worldly achievement, LS mean difference Psilocybin 25 mg-Placebo” value (Day 84) was −0.1 and the “LCI concern for worldly achievement, LS mean difference Psilocybin (25 mg-10 mg)” value (Day 84) was 0.1. The “LCI concern social, LS mean difference Psilocybin 10 mg-Placebo” value (Day 84) was 0.1, the “LCI concern social, LS mean difference Psilocybin 25 mg-Placebo” value (Day 84) was 0.1 and the “LCI concern social, LS mean difference Psilocybin (25 mg-10 mg)” value (Day 84) was 0.0. The “LCI quest for meaning, LS mean difference Psilocybin 10 mg-Placebo” value (Day 84) was 0.4, the “LCI quest for meaning, LS mean difference Psilocybin 25 mg-Placebo” value (Day 84) was 0.4 and the “LCI quest for meaning, LS mean difference Psilocybin (25 mg-10 mg)” value (Day 84) was −0.0. For the same molecule, the “LCI religiousness, LS mean difference Psilocybin 10 mg-Placebo” value (Day 84) was −0.0, the “LCI religiousness, LS mean difference Psilocybin 25 mg-Placebo” value (Day 84) was 0.0 and the “LCI religiousness, LS mean difference Psilocybin (25 mg-10 mg)” value (Day 84) was 0.1. The “LCI self-acceptance, LS mean difference Psilocybin 10 mg-Placebo” value (Day 84) was 0.5, the “LCI self-acceptance, LS mean difference Psilocybin 25 mg-Placebo” value (Day 84) was 0.5 and the “LCI self-acceptance, LS mean difference Psilocybin (25 mg-10 mg)” value (Day 84) was 0.0. For the same molecule, the “LCI spirituality, LS mean difference Psilocybin 10 mg-Placebo” value (Day 84) was 0.4, the “LCI spirituality, LS mean difference Psilocybin 25 mg-Placebo” value (Day 84) was 0.4 and the “LCI spirituality, LS mean difference Psilocybin (25 mg-10 mg)” value (Day 84) was −0.0. The “LCI-absolute change, LS mean difference Psilocybin 10 mg-Placebo” value (Day 84) was 0.4, the “LCI-absolute change, LS mean difference Psilocybin 25 mg-Placebo” value (Day 84) was 0.4 and the “LCI-absolute change, LS mean difference Psilocybin (25 mg-10 mg)” value (Day 84) was −0.0. The “LCI appreciation for life, LS mean” value (Psilocybin 10 mg, Day 7) was 0.8, the “LCI appreciation of death, LS mean” value (Psilocybin 10 mg, Day 7) was 0.2 and the “LCI concern for others, LS mean” value (Psilocybin 10 mg, Day 7) was 0.5. For the same molecule, the “LCI concern for worldly achievement, LS mean” value (Psilocybin 10 mg, Day 7) was −0.2, the “LCI concern social, LS mean” value (Psilocybin 10 mg, Day 7) was 0.2 and the “LCI quest for meaning, LS mean” value (Psilocybin 10 mg, Day 7) was 0.5. For the same molecule, the “LCI religiousness, LS mean” value (Psilocybin 10 mg, Day 7) was −0.0, the “LCI self-acceptance, LS mean” value (Psilocybin 10 mg, Day 7) was 0.8 and the “LCI spirituality, LS mean” value (Psilocybin 10 mg, Day 7) was 0.5. The “LCI-absolute change, LS mean” value (Psilocybin 10 mg, Day 7) was 0.5, the “LCI appreciation for life, LS mean” value (Psilocybin 10 mg, Day 84) was 0.8 and the “LCI appreciation of death, LS mean” value (Psilocybin 10 mg, Day 84) was 0.2. For the same molecule, the “LCI concern for others, LS mean” value (Psilocybin 10 mg, Day 84) was 0.5, the “LCI concern for worldly achievement, LS mean” value (Psilocybin 10 mg, Day 84) was −0.2 and the “LCI concern social, LS mean” value (Psilocybin 10 mg, Day 84) was 0.2. For the same molecule, the “LCI quest for meaning, LS mean” value (Psilocybin 10 mg, Day 84) was 0.5, the “LCI religiousness, LS mean” value (Psilocybin 10 mg, Day 84) was −0.0 and the “LCI self-acceptance, LS mean” value (Psilocybin 10 mg, Day 84) was 0.6. The “LCI spirituality, LS mean” value (Psilocybin 10 mg, Day 84) was 0.5, the “LCI-absolute change, LS mean” value (Psilocybin 10 mg, Day 84) was 0.5 and the “LCI appreciation for life, LS mean” value (Psilocybin 25 mg, Day 7) was 0.6. For the same molecule, the “LCI appreciation of death, LS mean” value (Psilocybin 25 mg, Day 7) was 0.1, the “LCI concern for others, LS mean” value (Psilocybin 25 mg, Day 7) was 0.6 and the “LCI concern for worldly achievement, LS mean” value (Psilocybin 25 mg, Day 7) was −0.2. The “LCI concern social, LS mean” value (Psilocybin 25 mg, Day 7) was 0.2, the “LCI quest for meaning, LS mean” value (Psilocybin 25 mg, Day 7) was 0.5 and the “LCI religiousness, LS mean” value (Psilocybin 25 mg, Day 7) was 0.0. For the same molecule, the “LCI self-acceptance, LS mean” value (Psilocybin 25 mg, Day 7) was 0.6, the “LCI spirituality, LS mean” value (Psilocybin 25 mg, Day 7) was 0.4 and the “LCI-absolute change, LS mean” value (Psilocybin 25 mg, Day 7) was 0.4. For the same molecule, the “LCI appreciation for life, LS mean” value (Psilocybin 25 mg, Day 84) was 0.7, the “LCI appreciation of death, LS mean” value (Psilocybin 25 mg, Day 84) was 0.3 and the “LCI concern for others, LS mean” value (Psilocybin 25 mg, Day 84) was 0.7. The “LCI concern for worldly achievement, LS mean” value (Psilocybin 25 mg, Day 84) was −0.1, the “LCI concern social, LS mean” value (Psilocybin 25 mg, Day 84) was 0.2 and the “LCI quest for meaning, LS mean” value (Psilocybin 25 mg, Day 84) was 0.5. For the same molecule, the “LCI religiousness, LS mean” value (Psilocybin 25 mg, Day 84) was 0.0, the “LCI self-acceptance, LS mean” value (Psilocybin 25 mg, Day 84) was 0.6 and the “LCI spirituality, LS mean” value (Psilocybin 25 mg, Day 84) was 0.5. For the same molecule, the “LCI-absolute change, LS mean” value (Psilocybin 25 mg, Day 84) was 0.5.
